Assay results taken from the supplement of paper PMC10307832.

How the values were obtained:
Test in all cases: relative viability (nuclei count vs DMSO), 5 days (fraction); higher = more cells survive
NCI-H1915 = system: NCI-H1915
In short: (§1)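 Lung cancer cell lines in 1536-well plates got either a single drug or a fixed anchor-drug dose together with five library-drug doses (not always all listed) in √10 steps, by pin tool, on the day after seeding. Nuclei were counted after 5 days, and relative viability is the treated-to-vehicle ratio of nuclei counts. Values are medians of duplicate plates.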

NCI-H1734 = system: NCI-H1734
In short: as §1

NCI-H661 = system: NCI-H661
In short: as §1

HCC-44 = system: HCC-44
In short: as §1

EKVX = system: EKVX
In short: as §1

HOP-62 = system: HOP-62
In short: as §1

NCI-H2087 = system: NCI-H2087
In short: as §1

LOU-NH91 = system: LOU-NH91
In short: as §1

SK-MES-1 = system: SK-MES-1
In short: as §1

NCI-H358 = system: NCI-H358
In short: as §1

ChaGo-K-1 = system: ChaGo-K-1
In short: as §1

HCC-78 = system: HCC-78
In short: as §1

HCC-366 = system: HCC-366
In short: as §1

EPLC-272H = system: EPLC-272H
In short: as §1

NCI-H2023 = system: NCI-H2023
In short: as §1

NCI-H1650 = system: NCI-H1650
In short: as §1

NCI-H3122 = system: NCI-H3122
In short: as §1

NCI-H1395 = system: NCI-H1395
In short: as §1

COR-L23 = system: COR-L23
In short: as §1

NCI-H650 = system: NCI-H650
In short: as §1

A-427 = system: A-427
In short: as §1

NCI-H596 = system: NCI-H596
In short: as §1

NCI-H838 = system: NCI-H838
In short: as §1

Work on `Cc1cnc(-c2cnc(NCCNc3ccc(C#N)cn3)nc2-c2ccc(Cl)cc2Cl)[nH]1` + Nc1nc2[nH]cc(CCc3ccc(C(=O)N[C@@H](CCC(=O)O)C(=O)O)cc3)c2c(=O)[nH]1 [Pemetrexed] (partner 0.2 µM) yielded a relative viability (NCI-H1915; first compound 0.08 µM) of 0.49, a relative viability (NCI-H1915; first compound 0.8 µM) of 0.438 and a relative viability (NCI-H1915; first compound 2.53 µM) of 0.398. It also gave a relative viability (NCI-H1734; first compound 0.08 µM) of 0.445, a relative viability (NCI-H1734; first compound 0.253 µM) of 0.371 and a relative viability (NCI-H1734; first compound 0.8 µM) of 0.395. It also gave a relative viability (NCI-H1734; first compound 2.53 µM) of 0.323, a relative viability (NCI-H661; first compound 0.08 µM) of 0.876 and a relative viability (NCI-H661; first compound 0.253 µM) of 0.887. The relative viability (NCI-H661; first compound 0.8 µM) was 0.738, the relative viability (NCI-H661; first compound 2.53 µM) was 0.649 and the relative viability (HCC-44; first compound 0.08 µM) was 0.633. For the same molecule, the relative viability (HCC-44; first compound 0.253 µM) was 0.631, the relative viability (HCC-44; first compound 0.8 µM) was 0.643 and the relative viability (HCC-44; first compound 2.53 µM) was 0.685. For the same molecule, the relative viability (EKVX; first compound 0.08 µM) was 0.455, the relative viability (EKVX; first compound 0.253 µM) was 0.358 and the relative viability (EKVX; first compound 0.8 µM) was 0.339. The relative viability (HOP-62; first compound 0.08 µM) was 0.26, the relative viability (HOP-62; first compound 0.253 µM) was 0.339 and the relative viability (HOP-62; first compound 0.8 µM) was 0.312. It also gave a relative viability (HOP-62; first compound 2.53 µM) of 0.236, a relative viability (NCI-H2087; first compound 0.08 µM) of 0.714 and a relative viability (NCI-H2087; first compound 0.8 µM) of 0.641. It also gave a relative viability (NCI-H2087; first compound 2.53 µM) of 0.511, a relative viability (LOU-NH91; first compound 0.08 µM) of 0.376 and a relative viability (LOU-NH91; first compound 0.253 µM) of 0.383. It also gave a relative viability (LOU-NH91; first compound 0.8 µM) of 0.399, a relative viability (LOU-NH91; first compound 2.53 µM) of 0.349 and a relative viability (SK-MES-1; first compound 0.08 µM) of 0.932. It also gave a relative viability (SK-MES-1; first compound 0.253 µM) of 0.895, a relative viability (SK-MES-1; first compound 0.8 µM) of 0.977 and a relative viability (SK-MES-1; first compound 2.53 µM) of 0.99. For the same molecule, the relative viability (NCI-H358; first compound 0.08 µM) was 0.168, the relative viability (NCI-H358; first compound 0.253 µM) was 0.182 and the relative viability (NCI-H358; first compound 0.8 µM) was 0.184. The relative viability (NCI-H358; first compound 2.53 µM) was 0.16, the relative viability (ChaGo-K-1; first compound 0.08 µM) was 0.252 and the relative viability (ChaGo-K-1; first compound 0.253 µM) was 0.265. The relative viability (ChaGo-K-1; first compound 0.8 µM) was 0.259, the relative viability (ChaGo-K-1; first compound 2.53 µM) was 0.248 and the relative viability (HCC-78; first compound 0.08 µM) was 0.893. It also gave a relative viability (HCC-78; first compound 0.253 µM) of 0.839, a relative viability (HCC-78; first compound 0.8 µM) of 0.897 and a relative viability (HCC-78; first compound 2.53 µM) of 0.938. The relative viability (HCC-366; first compound 0.08 µM) was 0.161, the relative viability (HCC-366; first compound 0.253 µM) was 0.137 and the relative viability (HCC-366; first compound 0.8 µM) was 0.133. It also gave a relative viability (HCC-366; first compound 2.53 µM) of 0.126, a relative viability (EPLC-272H; first compound 0.08 µM) of 0.388 and a relative viability (EPLC-272H; first compound 0.253 µM) of 0.293. It also gave a relative viability (EPLC-272H; first compound 0.8 µM) of 0.344, a relative viability (EPLC-272H; first compound 2.53 µM) of 0.276 and a relative viability (NCI-H2023; first compound 0.08 µM) of 0.283. It also gave a relative viability (NCI-H2023; first compound 0.253 µM) of 0.229, a relative viability (NCI-H2023; first compound 0.8 µM) of 0.199 and a relative viability (NCI-H2023; first compound 2.53 µM) of 0.261. For the same molecule, the relative viability (NCI-H1650; first compound 0.08 µM) was 0.356, the relative viability (NCI-H1650; first compound 0.253 µM) was 0.361 and the relative viability (NCI-H1650; first compound 0.8 µM) was 0.315. The relative viability (NCI-H1650; first compound 2.53 µM) was 0.289, the relative viability (NCI-H3122; first compound 0.08 µM) was 0.201 and the relative viability (NCI-H3122; first compound 0.8 µM) was 0.183. It also gave a relative viability (NCI-H3122; first compound 2.53 µM) of 0.174, a relative viability (NCI-H1395; first compound 0.08 µM) of 0.958 and a relative viability (NCI-H1395; first compound 0.253 µM) of 0.823. For the same molecule, the relative viability (NCI-H1395; first compound 0.8 µM) was 0.826, the relative viability (NCI-H1395; first compound 2.53 µM) was 0.756 and the relative viability (COR-L23; first compound 0.08 µM) was 0.191. It also gave a relative viability (COR-L23; first compound 0.253 µM) of 0.19, a relative viability (COR-L23; first compound 0.8 µM) of 0.198 and a relative viability (COR-L23; first compound 2.53 µM) of 0.185. The relative viability (NCI-H650; first compound 0.08 µM) was 0.915, the relative viability (NCI-H650; first compound 0.253 µM) was 0.92 and the relative viability (NCI-H650; first compound 0.8 µM) was 0.934. It also gave a relative viability (NCI-H650; first compound 2.53 µM) of 0.904, a relative viability (A-427; first compound 0.08 µM) of 0.981 and a relative viability (A-427; first compound 0.253 µM) of 0.901. The relative viability (A-427; first compound 0.8 µM) was 0.928, the relative viability (A-427; first compound 2.53 µM) was 0.927 and the relative viability (NCI-H596; first compound 0.08 µM) was 0.531. It also gave a relative viability (NCI-H596; first compound 0.253 µM) of 0.485, a relative viability (NCI-H596; first compound 0.8 µM) of 0.49 and a relative viability (NCI-H596; first compound 2.53 µM) of 0.53. For the same molecule, the relative viability (NCI-H838; first compound 0.08 µM) was 0.249, the relative viability (NCI-H838; first compound 0.253 µM) was 0.247 and the relative viability (NCI-H838; first compound 0.8 µM) was 0.236. For the same molecule, the relative viability (NCI-H838; first compound 2.53 µM) was 0.243.
